Structures are written as SMILES.

The target of the test is T1, HMG-CoA reductase (Homo sapiens, UniProt P04035).
T1 construct: endogenous in cells; host or cells: HepG2 (Korea Cell Line Bank)
T1 sequence (P04035 1-888): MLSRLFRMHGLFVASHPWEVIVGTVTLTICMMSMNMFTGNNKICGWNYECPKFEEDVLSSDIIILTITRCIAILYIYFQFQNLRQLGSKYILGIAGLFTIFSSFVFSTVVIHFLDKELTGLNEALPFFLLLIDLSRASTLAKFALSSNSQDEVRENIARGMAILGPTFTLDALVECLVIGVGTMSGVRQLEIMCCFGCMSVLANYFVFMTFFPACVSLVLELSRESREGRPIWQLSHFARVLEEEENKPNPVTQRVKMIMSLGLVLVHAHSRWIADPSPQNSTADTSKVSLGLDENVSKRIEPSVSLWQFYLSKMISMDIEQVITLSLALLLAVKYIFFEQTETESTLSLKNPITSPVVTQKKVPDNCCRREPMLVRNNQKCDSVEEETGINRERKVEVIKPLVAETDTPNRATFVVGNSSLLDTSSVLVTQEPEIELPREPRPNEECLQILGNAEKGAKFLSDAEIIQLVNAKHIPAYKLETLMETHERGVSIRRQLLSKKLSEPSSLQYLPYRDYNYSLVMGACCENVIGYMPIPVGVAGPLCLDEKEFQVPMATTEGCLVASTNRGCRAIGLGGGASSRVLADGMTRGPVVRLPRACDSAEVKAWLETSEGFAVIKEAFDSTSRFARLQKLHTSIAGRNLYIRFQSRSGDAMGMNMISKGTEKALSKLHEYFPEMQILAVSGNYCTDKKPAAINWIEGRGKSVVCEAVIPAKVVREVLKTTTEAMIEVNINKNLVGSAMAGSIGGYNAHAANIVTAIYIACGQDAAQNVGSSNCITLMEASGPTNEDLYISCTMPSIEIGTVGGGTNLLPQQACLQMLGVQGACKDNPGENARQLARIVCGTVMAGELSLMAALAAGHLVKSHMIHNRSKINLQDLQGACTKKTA
Description: HMG-CoA reductase (HMGCR) degradation in HepG2 cells by western blotting. Format: cell-based. Conditions: treated for 18 hours, ratio of HMG-CoA reductase to GAPDH, read-out: DC50. As for the experimental part: HepG2, a human liver cancer cell line, was purchased from the Korea Cell Line Bank (KCLB), Seoul, Korea. The passage in cell culture was maintained at P105 to P110.
The compounds of the present invention were completely dissolved in DMSO and used in the experiment. 2×10^5 cells were seeded for each well of a 12-well plate (SPL), and the cells were cultured in the culture medium in a total volume of 2 ml. Each of the compounds of the present invention and comparative compounds was diluted three folds from the highest concentration of 3 μM to the lowest concentration in 10 points and treated for 18 hours.
Each of the compounds the present invention and comparative compounds was diluted three folds from the highest concentration of 3 μM to the lowest concentration of […] in 10 points and was treated for 18 hours.
For SDS-PAGE and Western blotting, 1×RIPA lysis buffer (Rockland, Cat. No. MB-030-0050; Lot no. 39751), 100× Protease Inhibitor Cocktail (Quartett, Cat. No. PPI1015; Lot no. PCO50038424), Pierce™ BCA protein assay kit (ThermoScientific, Cat. No. 23225; Lot no. UC276876), albumin standard (ThermoScientific, Cat. No. 23209; Lot no. UB269561), 4-15% Mini-PROTEAN TGX stain-free gel (Bio-rad, Cat. No. 4568085; Lot no. L007041B), 10× Tris/Glycine/SDS buffer (Bio-rad, Cat. No. 1610732; Lot no. 10000044375B); 10×TBS (Bio-rad, Cat. No. 1706435; Lot no. 1000045140B), 10% Tween 20 (Cat. No. 1610781; Lot no. L004152B), Color protein standard broad range (NEB, Cat. No. P7719S; Lot no. 10040349), 4× Laemmli sample buffer (Bio-rad, Cat. No. 1610747; Lot no. L004133B), β-mercaptoethanol (Sigma-Aldrich, Cat. No. M3148; Lot no. 60-24-2), SuperBlock™ T20 (TBS) blocking buffer (ThermoScientific, Cat. No. 37536; Lot no. UC282578), 1M sodium azide solution (Sigma-Aldrich, Cat. No. 08591-1 mL-F; Lot no. BCBV4989), α-Rabbit pAb to Ms IgG (abcam, Cat. No. ab97046; Lot no. GR3252115-1), α-Goat pAb to Rb IgG (CST, Cat. No. 7074S; Lot no. 28), α-GAPDH (abcam, Cat. No. ab8245), α-HMGCR (GeneTex, Cat. No. GTX54088; Lot no. 821903509), ECL™ Prime western blotting reagents (GE Healthcare, Cat. No. RPN2232; Lot no. 17001655), Ponceau S solution (Sigma-Aldrich, Cat. No. P7170; Lot no. SLBV4112), Difco™ Skim milk (BD, Cat. No. 232100; Lot no. 8346795), and iBlot® 2 NC Regular stacks (Invitrogen, Cat. No. IB23001; Lot no. 2NR110619-02), were used.
For cell harvesting, the cells were first separated from the plate using trypsin and then washed with the medium and PBS. Specifically, the medium was suctioned off and washed with 1 mL of PBS, and PBS was suctioned off. The cells were treated with 0.5 mL TrypLE™ Express at 37° C. for 7 minutes to separate the cells, and then 0.5 mL of complete medium was added to collect 1 mL of cell culture solution. Then, 1 mL of the cell collection solution was centrifuged at 8,000 rpm for 120 seconds, and the supernatant was removed. After washing with 0.2 mL of PBS, the PBS was removed.
For cell lysis, a lysis buffer was added and cell debris was removed to obtain a cell lysate. Specifically, the cells were treated with 70 μL of 1×RIPA buffer containing a protease inhibitor and incubated for 30 minutes on ice. Then, the cells were centrifuged at 4° C. and 15,000 rpm for 10 minutes to obtain a cell lysate.
Then, a standard curve was obtained using the BCA assay, and the protein mass in the lysate was quantified by substituting the curve. The mixture was incubated at 37° C. for 30 minutes using 20 μL of standard or sample solution, and 200 μL of BCA or Bradford solution, and measured at 562 nm absorbance. Samples were prepared by adding 4× sample buffer so that the quantity of protein added to each well was 15 μg.
Sodium dodecyl sulfate polyacrylamide gel electrophoresis (SDS-PAGE) was performed by setting a running time of 100 minutes at 120 V on a 4-15% Mini-PROTEAN TGX stain-free gel (15 well). Transferring was performed on iBlot® 2 NC Mini stacks at P0 mode of the dry blotting system. […]
A general note: Immunoblotting shows a protein as a band on a membrane.
Take `C[C@H]1C=C2C=C[C@H](C)[C@H](CC[C@@H]3C[C@@H](O)CC(=O)O3)[C@H]2[C@@H](OC(=O)NCCC2CCN(C(=O)COc3cccc4c3C(=O)N(C3CCC(=O)NC3=O)C4=O)CC2)C1` (stereo partly drawn) [Compound 81, (1S,3R,7S,8S,8aR)-8-(2-((2R,4R)-4-hydroxy-6-oxotetrahydro-2H-pyran-2-yl)ethyl)-3,7-dimethyl-1,2,3,7,8,8a-hexahydronaphthalen-1-yl (2-(1-(2-((2-(2,6-dioxopiperidin-3-yl)-1,3-dioxoisoindolin-4-yl)oxy)acetyl)piperidin-4-yl)ethyl)carbamate]: the DC50 was < 50 nM.
The result for `C[C@H]1C=C2C=C[C@H](C)[C@H](CC[C@@H]3C[C@@H](O)CC(=O)O3)[C@H]2[C@@H](OC(=O)NCCC(=O)NCCOCCNc2cccc3c2C(=O)N(C2CCC(=O)NC2=O)C3=O)C1` (stereo partly drawn) [Compound 101, (1S,3R,7S,8S,8aR)-8-(2-((2R,4R)-4-hydroxy-6-oxotetrahydro-2H-pyran-2-yl)ethyl)-3,7-dimethyl-1,2,3,7,8,8a-hexahydronaphthalen-1-yl (3-((2-(2-((2-(2,6-dioxopiperidin-3-yl)-1,3-dioxoisoindolin-4-yl)amino)ethoxy)ethyl)amino)-3-oxopropyl)carbamate] reads < 50 nM; that for `Cc1ncsc1-c1ccc(CNC(=O)[C@@H]2C[C@@H](O)CN2C(=O)[C@@H](NC(=O)CCCCCCCNC(=O)O[C@H]2C[C@@H](C)C=C3C=C[C@H](C)[C@H](CC[C@@H]4C[C@@H](O)CC(=O)O4)[C@H]32)C(C)(C)C)cc1` [Compound 158, (1S,3R,7S,8S,8aR)-8-(2-((2R,4R)-4-hydroxy-6-oxotetrahydro-2H-pyran-2-yl)ethyl)-3,7-dimethyl-1,2,3,7,8,8a-hexahydronaphthalen-1-yl (8-(((S)-1-((2S,4R)-4-hydroxy-2-((4-(4-methylthiazol-5-yl)benzyl)carbamoyl)pyrrolidin-1-yl)-3,3-dimethyl-1-oxobutan-2-yl)amino)-8-oxooctyl)carbamate], < 50 nM.
The value for `Cc1ncsc1-c1ccc(CNC(=O)[C@@H]2C[C@@H](O)CN2C(=O)[C@@H](NC(=O)COCCOCCOCCOCCNC(=O)CCC(C)(C)C(=O)O[C@H]2C[C@@H](C)C=C3C=C[C@H](C)[C@H](CC[C@@H]4C[C@@H](O)CC(=O)O4)[C@H]32)C(C)(C)C)cc1` [Compound 11, (S)-(1S,3R,7S,8S,8aR)-8-(2-((2R,4R)-4-hydroxy-6-oxotetrahydro-2H-pyran-2-yl)ethyl)-3,7-dimethyl-1,2,3,7,8,8a-hexahydronaphthalen-1-yl 3-((2S,4R)-4-hydroxy-2-((4-(4-methylthiazol-5-yl)benzyl)carbamoyl)pyrrolidine-1-carbonyl)-2,2,23,23-tetramethyl-5,20-dioxo-7,10,13,16-tetraoxa-4,19-diazatetracosan-24-oate] was < 50 nM; that for `C[C@H]1C=C2C=C[C@H](C)[C@H](CC[C@@H]3C[C@@H](O)CC(=O)O3)[C@H]2[C@@H](OC(=O)NCCOCCOCCOCCNc2cccc3c2C(=O)N(C2CCC(=O)NC2=O)C3=O)C1` (stereo partly drawn) [Compound 41, (1S,3R,7S,8S,8aR)-8-(2-((2R,4R)-4-hydroxy-6-oxotetrahydro-2H-pyran-2-yl)ethyl)-3,7-dimethyl-1,2,3,7,8,8a-hexahydronaphthalen-1-yl (2-(2-(2-(2-((2-(2,6-dioxopiperidin-3-yl)-1,3-dioxoisoindolin-4-yl)amino)ethoxy)ethoxy)ethoxy)ethyl)carbamate] was < 50 nM; that for `C[C@H]1C=C2C=C[C@H](C)[C@H](CC[C@@H]3C[C@@H](O)CC(=O)O3)[C@H]2[C@@H](OC(=O)NCCOCCOCCNc2cccc3c2CN(C2CCC(=O)NC2=O)C3=O)C1` (stereo partly drawn) [Compound 66, (1S,3R,7S,8S,8aR)-8-(2-((2R,4R)-4-hydroxy-6-oxotetrahydro-2H-pyran-2-yl)ethyl)-3,7-dimethyl-1,2,3,7,8,8a-hexahydronaphthalen-1-yl (2-(2-(2-((2-(2,6-dioxopiperidin-3-yl)-1-oxoisoindolin-4-yl)amino)ethoxy)ethoxy)ethyl)carbamate] was < 50 nM.
The result for `C[C@H]1C=C2C=C[C@H](C)[C@H](CC[C@@H]3C[C@@H](O)CC(=O)O3)[C@H]2[C@@H](OC(=O)NCCCCCNc2cccc3c2C(=O)N(C2CCC(=O)NC2=O)C3=O)C1` (stereo partly drawn) [Compound 58, (1S,3R,7S,8S,8aR)-8-(2-((2R,4R)-4-hydroxy-6-oxotetrahydro-2H-pyran-2-yl)ethyl)-3,7-dimethyl-1,2,3,7,8,8a-hexahydronaphthalen-1-yl (5-((2-(2,6-dioxopiperidin-3-yl)-1,3-dioxoisoindolin-4-yl)amino)pentyl)carbamate] reads 50 to 500 nM.
With `C[C@H]1C=C2C=C[C@H](C)[C@H](CC[C@@H]3C[C@@H](O)CC(=O)O3)[C@H]2[C@@H](OC(=O)NCc2cccc(CNC(=O)COc3cccc4c3C(=O)N(C3CCC(=O)NC3=O)C4=O)c2)C1` (stereo partly drawn) [Compound 79, (1S,3R,7S,8S,8aR)-8-(2-((2R,4R)-4-hydroxy-6-oxotetrahydro-2H-pyran-2-yl)ethyl)-3,7-dimethyl-1,2,3,7,8,8a-hexahydronaphthalen-1-yl (3-((2-((2-(2,6-dioxopiperidin-3-yl)-1,3-dioxoisoindolin-4-yl)oxy)acetamido)methyl)benzyl)carbamate], the DC50 is < 50 nM.

As usually defined, the DC50 is the concentration giving 50% degradation.

For the origin of these results see US12479840B2, “HMG-CoA reductase degradation inducing compound” (Uppthera, priority 2020, dated 2025).
